Measured values published in article PMC8800111 (The Journal of Biological Chemistry, 2021).

Experiments:
Type in all cases: cell-based
[1] = biological target: proteins of U3A human fibrosarcoma cells (4462 proteins detected) (Homo sapiens, UniProt P49840); conditions: protein GSK3A; U3A cells
[2] = biological target: proteins of U3A human fibrosarcoma cells (4462 proteins detected) (Homo sapiens, UniProt P36543); conditions: protein ATP6V1E1; soluble abundance after heat, U3A cells
[3] = biological target: proteins of U3A human fibrosarcoma cells (4462 proteins detected) (Homo sapiens, UniProt P36507); conditions: protein MAP2K2; U3A cells
[4] = biological target: proteins of U3A human fibrosarcoma cells (4462 proteins detected) (Homo sapiens, UniProt Q9NVR0); conditions: protein KLHL11; U3A cells
[5] = biological target: proteins of U3A human fibrosarcoma cells (4462 proteins detected) (Homo sapiens, UniProt P13693); conditions: protein TPT1, U3A cells
[6] = biological target: proteins of U3A human fibrosarcoma cells (4462 proteins detected) (Homo sapiens, UniProt Q9H9F9); conditions: protein ACTR5; U3A cells
[7] = biological target: proteins of U3A human fibrosarcoma cells (4462 proteins detected) (Homo sapiens, UniProt Q8TBF4); conditions: protein ZCRB1; soluble abundance after heat, U3A cells
[8] = biological target: proteins of U3A human fibrosarcoma cells (4462 proteins detected) (Homo sapiens, UniProt Q9BUJ2); conditions: protein HNRNPUL1, U3A cells
[9] = biological target: proteins of U3A human fibrosarcoma cells (4462 proteins detected) (Homo sapiens, UniProt P61081); conditions: protein UBE2M; U3A cells
[10] = biological target: proteins of U3A human fibrosarcoma cells (4462 proteins detected) (Homo sapiens, UniProt P38432); conditions: protein COIL; soluble abundance after heat, U3A cells
[11] = biological target: proteins of U3A human fibrosarcoma cells (4462 proteins detected) (Homo sapiens, UniProt Q9NXV2); conditions: protein KCTD5, U3A cells
[12] = biological target: proteins of U3A human fibrosarcoma cells (4462 proteins detected) (Homo sapiens, UniProt O95801); conditions: protein TTC4; soluble abundance after heat, U3A cells
[13] = biological target: proteins of U3A human fibrosarcoma cells (4462 proteins detected) (Homo sapiens, UniProt Q9Y3T9); conditions: protein NOC2L; soluble abundance after heat, U3A cells
[14] = biological target: proteins of U3A human fibrosarcoma cells (4462 proteins detected) (Homo sapiens, UniProt Q96PV6); conditions: protein LENG8; U3A, 10 μM, 2 h
[15] = biological target: proteins of U3A human fibrosarcoma cells (4462 proteins detected) (Homo sapiens, UniProt P17844); conditions: protein DDX5; U3A cells
[16] = biological target: proteins of U3A human fibrosarcoma cells (4462 proteins detected) (Homo sapiens, UniProt Q15382); conditions: protein RHEB; U3A, 10 μM, 2 h
[17] = biological target: proteins of U3A human fibrosarcoma cells (4462 proteins detected) (Homo sapiens, UniProt P16298); conditions: protein PPP3CB; U3A cells
[18] = biological target: proteins of U3A human fibrosarcoma cells (4462 proteins detected) (Homo sapiens, UniProt P30154); conditions: protein PPP2R1B; soluble abundance after heat, U3A cells
[19] = biological target: proteins of U3A human fibrosarcoma cells (4462 proteins detected) (Homo sapiens, UniProt Q9Y6D5); conditions: protein ARFGEF2; U3A cells
[20] = biological target: proteins of U3A human fibrosarcoma cells (4462 proteins detected) (Homo sapiens, UniProt P27694); conditions: protein RPA1; U3A cells
[21] = biological target: proteins of U3A human fibrosarcoma cells (4462 proteins detected) (Homo sapiens, UniProt Q32P44); conditions: protein EML3, U3A cells
[22] = biological target: proteins of U3A human fibrosarcoma cells (4462 proteins detected) (Homo sapiens, UniProt P54886); conditions: protein ALDH18A1; U3A cells
[23] = biological target: proteins of U3A human fibrosarcoma cells (4462 proteins detected) (Homo sapiens, UniProt Q13620); conditions: protein CUL4B; U3A cells
[24] = biological target: proteins of U3A human fibrosarcoma cells (4462 proteins detected) (Homo sapiens, UniProt Q8NCN4); conditions: protein RNF169, U3A cells
[25] = biological target: proteins of U3A human fibrosarcoma cells (4462 proteins detected) (Homo sapiens, UniProt Q6P1L8); conditions: protein MRPL14, U3A cells
[26] = biological target: proteins of U3A human fibrosarcoma cells (4462 proteins detected) (Homo sapiens, UniProt Q9UIG0); conditions: protein BAZ1B; U3A cells
[27] = biological target: proteins of U3A human fibrosarcoma cells (4462 proteins detected) (Homo sapiens, UniProt O94925); conditions: protein GLS; U3A, 10 μM, 2 h
[28] = biological target: proteins of U3A human fibrosarcoma cells (4462 proteins detected) (Homo sapiens, UniProt Q92692); conditions: protein PVRL2; U3A cells
[29] = biological target: proteins of U3A human fibrosarcoma cells (4462 proteins detected) (Homo sapiens, UniProt Q86WQ0); conditions: protein NR2C2AP, U3A cells
[30] = biological target: proteins of U3A human fibrosarcoma cells (4462 proteins detected) (Homo sapiens, UniProt Q27J81); conditions: protein INF2, U3A cells

Chain of proteins of U3A human fibrosarcoma cells (4462 proteins detected) (Homo sapiens, UniProt Q96PV6) (Q96PV6 whole entry): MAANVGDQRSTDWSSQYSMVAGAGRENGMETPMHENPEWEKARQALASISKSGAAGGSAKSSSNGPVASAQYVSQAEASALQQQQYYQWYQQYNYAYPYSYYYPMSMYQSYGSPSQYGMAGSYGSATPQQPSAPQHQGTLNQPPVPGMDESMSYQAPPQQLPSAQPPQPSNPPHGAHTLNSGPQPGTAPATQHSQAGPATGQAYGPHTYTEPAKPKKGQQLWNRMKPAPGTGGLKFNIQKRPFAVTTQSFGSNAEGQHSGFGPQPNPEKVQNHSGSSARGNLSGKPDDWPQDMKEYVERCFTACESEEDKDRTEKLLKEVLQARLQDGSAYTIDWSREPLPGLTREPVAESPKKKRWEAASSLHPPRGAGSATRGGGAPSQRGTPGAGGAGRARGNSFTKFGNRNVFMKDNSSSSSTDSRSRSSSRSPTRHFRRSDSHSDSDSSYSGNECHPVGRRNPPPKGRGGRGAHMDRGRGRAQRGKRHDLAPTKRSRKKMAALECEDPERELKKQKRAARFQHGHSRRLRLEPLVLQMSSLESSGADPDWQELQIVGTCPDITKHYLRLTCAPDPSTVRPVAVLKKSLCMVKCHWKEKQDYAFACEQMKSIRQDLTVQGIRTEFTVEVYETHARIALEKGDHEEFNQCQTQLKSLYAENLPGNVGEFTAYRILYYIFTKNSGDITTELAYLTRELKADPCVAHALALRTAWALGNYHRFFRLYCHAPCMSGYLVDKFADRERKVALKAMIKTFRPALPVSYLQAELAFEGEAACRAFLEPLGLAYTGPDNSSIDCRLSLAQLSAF
Chain of proteins of U3A human fibrosarcoma cells (4462 proteins detected) (Homo sapiens, UniProt P27694) (P27694 whole entry): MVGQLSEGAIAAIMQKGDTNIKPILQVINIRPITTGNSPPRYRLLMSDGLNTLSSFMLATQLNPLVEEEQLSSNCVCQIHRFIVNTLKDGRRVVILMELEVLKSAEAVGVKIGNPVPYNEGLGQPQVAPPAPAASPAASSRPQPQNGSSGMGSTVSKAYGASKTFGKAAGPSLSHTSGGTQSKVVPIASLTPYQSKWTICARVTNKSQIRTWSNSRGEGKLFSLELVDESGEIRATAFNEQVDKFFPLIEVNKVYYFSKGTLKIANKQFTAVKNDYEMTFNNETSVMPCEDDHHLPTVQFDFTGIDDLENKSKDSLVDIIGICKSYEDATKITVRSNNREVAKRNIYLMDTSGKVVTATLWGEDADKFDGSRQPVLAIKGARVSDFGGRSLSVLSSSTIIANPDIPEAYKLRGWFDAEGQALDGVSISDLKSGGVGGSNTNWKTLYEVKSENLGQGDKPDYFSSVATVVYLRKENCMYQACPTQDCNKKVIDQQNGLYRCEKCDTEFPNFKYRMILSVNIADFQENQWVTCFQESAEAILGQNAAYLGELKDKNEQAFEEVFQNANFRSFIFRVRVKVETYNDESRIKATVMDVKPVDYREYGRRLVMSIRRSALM
Chain of proteins of U3A human fibrosarcoma cells (4462 proteins detected) (Homo sapiens, UniProt O95801) (O95801 whole entry): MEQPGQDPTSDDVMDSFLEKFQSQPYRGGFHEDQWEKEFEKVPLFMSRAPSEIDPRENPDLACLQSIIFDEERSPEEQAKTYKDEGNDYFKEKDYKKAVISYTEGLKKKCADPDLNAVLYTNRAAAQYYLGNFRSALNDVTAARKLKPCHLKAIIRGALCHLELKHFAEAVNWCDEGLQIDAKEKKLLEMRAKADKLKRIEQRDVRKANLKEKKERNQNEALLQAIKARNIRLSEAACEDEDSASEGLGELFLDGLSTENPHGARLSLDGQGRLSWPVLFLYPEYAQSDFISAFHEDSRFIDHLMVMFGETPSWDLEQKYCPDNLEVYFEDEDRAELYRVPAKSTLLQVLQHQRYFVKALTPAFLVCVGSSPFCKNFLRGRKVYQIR
Chain of proteins of U3A human fibrosarcoma cells (4462 proteins detected) (Homo sapiens, UniProt P36543) (P36543 whole entry): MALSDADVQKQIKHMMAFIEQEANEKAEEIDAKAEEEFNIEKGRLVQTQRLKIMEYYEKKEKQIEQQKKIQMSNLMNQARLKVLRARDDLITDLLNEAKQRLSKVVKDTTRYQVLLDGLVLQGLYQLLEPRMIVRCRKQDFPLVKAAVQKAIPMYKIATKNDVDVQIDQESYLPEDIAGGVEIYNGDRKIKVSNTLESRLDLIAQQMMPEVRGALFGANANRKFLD
Chain of proteins of U3A human fibrosarcoma cells (4462 proteins detected) (Homo sapiens, UniProt P36507) (P36507 whole entry): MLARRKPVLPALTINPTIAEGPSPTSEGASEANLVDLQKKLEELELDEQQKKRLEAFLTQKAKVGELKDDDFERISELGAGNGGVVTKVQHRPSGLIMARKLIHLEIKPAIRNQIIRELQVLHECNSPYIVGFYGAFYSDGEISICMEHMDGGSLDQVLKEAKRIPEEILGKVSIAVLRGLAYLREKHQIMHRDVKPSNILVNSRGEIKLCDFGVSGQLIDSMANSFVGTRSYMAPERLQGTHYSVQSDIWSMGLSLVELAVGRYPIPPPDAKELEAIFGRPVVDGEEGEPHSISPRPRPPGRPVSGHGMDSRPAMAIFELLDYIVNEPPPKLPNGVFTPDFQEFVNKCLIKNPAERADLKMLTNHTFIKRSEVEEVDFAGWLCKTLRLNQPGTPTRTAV
Chain of proteins of U3A human fibrosarcoma cells (4462 proteins detected) (Homo sapiens, UniProt Q13620) (Q13620 whole entry): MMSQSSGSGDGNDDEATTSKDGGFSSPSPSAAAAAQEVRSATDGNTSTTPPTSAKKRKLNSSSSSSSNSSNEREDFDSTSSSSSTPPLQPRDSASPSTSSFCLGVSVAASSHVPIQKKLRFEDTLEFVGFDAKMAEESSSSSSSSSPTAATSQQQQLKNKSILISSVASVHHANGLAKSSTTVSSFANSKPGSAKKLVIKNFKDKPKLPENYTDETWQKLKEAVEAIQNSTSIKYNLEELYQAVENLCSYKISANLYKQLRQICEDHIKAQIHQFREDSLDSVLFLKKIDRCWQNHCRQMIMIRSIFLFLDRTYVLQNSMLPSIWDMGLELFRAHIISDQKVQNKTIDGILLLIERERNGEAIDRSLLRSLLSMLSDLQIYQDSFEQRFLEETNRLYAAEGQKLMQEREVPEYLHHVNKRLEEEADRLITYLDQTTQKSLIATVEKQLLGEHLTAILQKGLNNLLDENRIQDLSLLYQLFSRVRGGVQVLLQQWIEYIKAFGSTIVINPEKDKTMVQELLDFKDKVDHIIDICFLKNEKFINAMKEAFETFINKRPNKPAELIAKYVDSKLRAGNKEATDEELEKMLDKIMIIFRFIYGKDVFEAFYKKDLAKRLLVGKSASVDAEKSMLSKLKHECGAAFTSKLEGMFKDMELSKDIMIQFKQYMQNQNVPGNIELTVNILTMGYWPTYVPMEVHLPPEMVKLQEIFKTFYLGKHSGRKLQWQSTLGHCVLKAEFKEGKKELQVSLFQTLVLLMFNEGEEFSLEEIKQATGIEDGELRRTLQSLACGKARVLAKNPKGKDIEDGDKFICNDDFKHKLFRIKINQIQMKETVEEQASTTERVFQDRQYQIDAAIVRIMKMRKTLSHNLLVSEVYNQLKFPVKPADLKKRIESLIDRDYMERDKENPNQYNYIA
Chain of proteins of U3A human fibrosarcoma cells (4462 proteins detected) (Homo sapiens, UniProt P61081) (P61081 whole entry): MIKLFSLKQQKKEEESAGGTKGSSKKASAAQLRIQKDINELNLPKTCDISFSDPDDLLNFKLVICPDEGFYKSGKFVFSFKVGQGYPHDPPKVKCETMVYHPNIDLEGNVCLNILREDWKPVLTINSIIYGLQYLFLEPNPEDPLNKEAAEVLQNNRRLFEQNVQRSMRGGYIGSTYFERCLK
Chain of proteins of U3A human fibrosarcoma cells (4462 proteins detected) (Homo sapiens, UniProt P54886) (P54886 whole entry): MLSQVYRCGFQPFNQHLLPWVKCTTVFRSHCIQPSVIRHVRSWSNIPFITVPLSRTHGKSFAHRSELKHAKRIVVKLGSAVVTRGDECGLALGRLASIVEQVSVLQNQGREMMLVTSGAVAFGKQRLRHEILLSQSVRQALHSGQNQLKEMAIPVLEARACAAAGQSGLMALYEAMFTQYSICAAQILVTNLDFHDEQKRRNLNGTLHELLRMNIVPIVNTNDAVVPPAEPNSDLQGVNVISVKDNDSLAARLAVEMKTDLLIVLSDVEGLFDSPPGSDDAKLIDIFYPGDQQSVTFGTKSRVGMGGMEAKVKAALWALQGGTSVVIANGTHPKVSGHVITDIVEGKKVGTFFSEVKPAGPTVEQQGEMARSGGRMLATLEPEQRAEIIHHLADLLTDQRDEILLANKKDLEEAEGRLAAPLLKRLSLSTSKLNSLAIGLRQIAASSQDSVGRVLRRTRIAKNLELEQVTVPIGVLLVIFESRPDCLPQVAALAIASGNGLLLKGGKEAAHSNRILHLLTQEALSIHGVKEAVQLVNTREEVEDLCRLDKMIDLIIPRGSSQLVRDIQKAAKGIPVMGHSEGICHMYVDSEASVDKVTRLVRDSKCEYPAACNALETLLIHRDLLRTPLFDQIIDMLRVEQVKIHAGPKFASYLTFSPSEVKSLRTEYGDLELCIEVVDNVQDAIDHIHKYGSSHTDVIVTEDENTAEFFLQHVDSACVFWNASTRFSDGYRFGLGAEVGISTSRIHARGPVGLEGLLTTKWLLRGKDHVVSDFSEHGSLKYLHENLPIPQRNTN
Chain of proteins of U3A human fibrosarcoma cells (4462 proteins detected) (Homo sapiens, UniProt Q9H9F9) (Q9H9F9 whole entry): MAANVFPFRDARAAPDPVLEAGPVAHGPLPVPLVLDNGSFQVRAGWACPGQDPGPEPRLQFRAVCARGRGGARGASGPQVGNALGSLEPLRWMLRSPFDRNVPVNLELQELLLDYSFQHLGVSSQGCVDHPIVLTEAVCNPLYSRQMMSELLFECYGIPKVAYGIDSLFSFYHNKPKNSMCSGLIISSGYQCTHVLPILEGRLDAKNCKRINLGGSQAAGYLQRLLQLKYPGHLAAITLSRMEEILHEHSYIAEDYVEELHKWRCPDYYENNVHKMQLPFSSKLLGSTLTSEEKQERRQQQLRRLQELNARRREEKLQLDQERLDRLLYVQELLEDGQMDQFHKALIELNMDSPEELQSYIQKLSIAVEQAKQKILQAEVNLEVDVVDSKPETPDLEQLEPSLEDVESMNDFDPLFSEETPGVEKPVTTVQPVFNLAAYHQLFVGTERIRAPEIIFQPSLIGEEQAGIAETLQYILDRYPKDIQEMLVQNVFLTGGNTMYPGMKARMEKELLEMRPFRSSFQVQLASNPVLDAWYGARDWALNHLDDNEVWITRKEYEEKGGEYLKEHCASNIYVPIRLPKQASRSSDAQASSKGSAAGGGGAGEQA

CCc1nc(N)nc(N)c1-c1ccc(Cl)cc1 [pyrimethamine]
Log2 (PYR/DMSO) [1]: 0.16 | Log2 (PYR/DMSO) [2]: 0.14 | Log2 (PYR/DMSO) [3]: 0.23 | Log2 (PYR/DMSO) [4]: 0.18 | Log2 (PYR/DMSO) [5]: -0.05 | Log2 (PYR/DMSO) [6]: 0.20 | Log2 (PYR/DMSO) [7]: 0.14 | Log2 (PYR/DMSO) [8]: -0.04 | Log2 (PYR/DMSO) [9]: 0.19 | Log2 (PYR/DMSO) [10]: 0.15 | Log2 (PYR/DMSO) [11]: -0.04 | Log2 (PYR/DMSO) [12]: 0.13 | Log2 (PYR/DMSO) [13]: 0.14 | Log2 (PYR/DMSO), LENG8 [14]: 0.27 | Log2 (PYR/DMSO) [15]: 0.19 | Log2 (PYR/DMSO), RHEB [16]: -0.45 | Log2 (PYR/DMSO) [17]: 0.19 | Log2 (PYR/DMSO) [18]: 0.15 | Log2 (PYR/DMSO) [19]: 0.18 | Log2 (PYR/DMSO) [20]: 0.16 | Log2 (PYR/DMSO) [21]: -0.05 | Log2 (PYR/DMSO) [22]: 0.17 | Log2 (PYR/DMSO) [23]: 0.18 | Log2 (PYR/DMSO) [24]: -0.03 | Log2 (PYR/DMSO) [25]: -0.04 | Log2 (PYR/DMSO) [26]: 0.21 | Log2 (PYR/DMSO), GLS [27]: 0.24 | Log2 (PYR/DMSO) [28]: 0.17 | Log2 (PYR/DMSO) [29]: -0.03 | Log2 (PYR/DMSO) [30]: -0.04
